Test results taken from patent US20260265690A1, “Epithelial Stem Cells and Production and Uses thereof” (Stemson Therapeutics Corp., priority 2022, published 2026).

Experiments:
Assay type in all cases: cell-based, human
hiPSC-EPSCs = assay: Colony formation assay (CFA) on 3T3 fibroblast feeders; conditions: small molecules added to expansion medium at passage 4; 2.5 μM CHIR99021, 1 μM DMH-1, 2.5 μM A-83-01; CFA at p7, 1K/well, 10 days
Method: FIGS. 2A-2D show characterization of hiPSC-EPSC in vitro. […] For CFA, different hiPSC-EPSC lines (EP61, EP112 and EP116) and control HF-KC were subcultured for 3 passages (p3) then plated on 3T3 fibroblast feeders at 1K/well and incubated for additional 10 days, then fixed and stained with Crystal violet. […] Hair follicle derived keratinocytes (HFKC) are used as reference cells. […] Ns: p>0.05; *: p<0.05; ** p<0.01; *** p<0.001; ****: p<0.0001. […] Note nuclear localization of 3-Cat, a hallmark of Wnt signaling activation in hiPSC-EPSC but not in HF-KC (arrows).
(§1) FIGS. 3A-3E show activation of Wnt signaling pathway via GSK3 inhibition enables long-term expansion of hiPSC-EPSC. […] The clonogenicity of hiPSC-EPSCs was diminishing as a result of serial passaging. […] For CFA, hiPSC-EPSCs were cultured for 7 weeks (p7) with or without small molecule inhibitors, then plated on 3T3 fibroblast feeders at 1K/well and incubated for additional 10 days, then fixed and stained with Crystal violet. The plates were scanned and analyzed using imaging software to determine the confluency. The confluency data from three experiments is summarized in the graph (right panel). […] The graph is showing the percentage of proliferating (Ki67+) hiPSC-EPSC over total nuclei (DAPI+). *: p<0.05. […] Data was analyzed using standard ddCt method and shown as mean±s.d. of the expression from three independent experiments. *: p<0.05; ****: p<0.01. […] Data are represented as a heatmap, where results from eight independent differentiation experiments were averaged and z-scores were calculated for each timepoint represented.
(§2) Despite EPSCs having substantial self-renewal capability in vivo, the prolonged expansion in vitro of EPSC isolated from various tissues has remained challenging. It is well documented that in conventional cultures, freshly isolated EPSCs rapidly lose their clonogenicity and stem cell marker expression signature. Inoue et al, Lab invest. 2009 August, 89(8):844-56; Ohyama et al., J Clin Invest. 2006 January, 116(1):249-60; Yang et al., Stem Cell Research & Therapy (2020) 11:303. […]

[1] = test system: HF organoids of hiPSC-EPSC with dermal papilla (DP) cells; assay: 3D hair follicle organoid assay (roundness/elongation score); conditions: 2.5 μM added to EPSC and organoid culture
Method: FIGS. 4A-4D show in vitro functional analysis of hiPSC-EPSC in 3D tissue constructs. […] Bottom panel illustrates an organoid development process of using an example of an organoid created by combining fluorescently labeled (red) dermal papilla (DP) cells with HF-KCs. […] Measurement is obtained with CYTATION™ 5 software. Each color represents a different cell combination, and each dot represents a single organoid. The percentage of elongated organoids was increased when hiPSC-EPSC were treated with CHIR-99021. […] Neonatal foreskin-derived keratinocytes (HFK) were used as a control. […]
The stable hiPSC-EPSC with features of HF bulge EPSC described above were investigated as to whether they were receptive to specific mesenchymal stimuli and capable of creating complex multilayered tissues. […] To quantitively assess the organoids elongation and provide an indicator of hiPSC-EPSC functionality in vitro, an automated computational image-based analysis was employed that calculates the roundness of the generated 3D structures, assigning values between 1 and 0, where 1 represents a perfectly round object and 0 a long shaped one. By plotting time-lapse values of roundness score in a graph, the ability of iPSC-EPSC cells to generate elongated structure in combination with DP cells (FIG. 4C) was quantified. […]

passage 4 hiPSC-EPSCs = assay: Bulk RNA-seq of HF bulge EPSC marker expression; conditions: CHIR-99021 vs DMSO
Method: FIGS. 3A-3E show activation of Wnt signaling pathway via GSK3 inhibition enables long-term expansion of hiPSC-EPSC. […] The clonogenicity of hiPSC-EPSCs was diminishing as a result of serial passaging. […] For CFA, hiPSC-EPSCs were cultured for 7 weeks (p7) with or without small molecule inhibitors, then plated on 3T3 fibroblast feeders at 1K/well and incubated for additional 10 days, then fixed and stained with Crystal violet. The plates were scanned and analyzed using imaging software to determine the confluency. The confluency data from three experiments is summarized in the graph (right panel). […] Data was analyzed using standard ddCt method and shown as mean±s.d. of the expression from three independent experiments. *: p<0.05; ****: p<0.01. […] Data are represented as a heatmap, where results from eight independent differentiation experiments were averaged and z-scores were calculated for each timepoint represented.
Bulk RNA-sequencing: RNA was extracted from each sample and quantified with Qubit. cDNA libraries were generated using the NEB library kit. All libraries were then quantified, pooled, and sequenced on Illumina platforms. Reads were first analyzed by fastQC and then trimmed for low-quality bases with Trimmomatic. Clean reads were then aligned to the human reference genome (GRCh38) with Ensembl gene annotation using STAR software. […]

hiPSC-EPSC = assay: Ki67 immunofluorescent analysis of proliferating cells; conditions: hiPSC-EPSC treated with CHIR-99021 vs untreated cells
Method: as §1
Immunocytochemistry: Cells were cultured and imaged in 96 well plates. Briefly, media was aspirated, and wells rinsed once with PBS for 2 minutes. Cells were fixed with 4% formaldehyde for 10 minutes at RT, followed by two washes with PBS. […]

[2] = test system: Wnt pathway genes LEF1, TCF4, LGR6 in hiPSC-EPSC; assay: qPCR gene expression analysis of Wnt signaling pathway genes; conditions: ddCt, hiPSC-EPSC treated with CHIR-99021
Method: as §1
as §2, with “invest.” for “invest. 2009 August, 89(8):844-56; Ohyama et al., J Clin Invest. 2006 January, 116(1):249-60; Yang et al., Stem Cell Research & Therapy (2020) 11:303.”

Row | Compound | clonogenicity of hiPSC-EPSCs (hiPSC-EPSCs) | percentage of elongated organoids [1] | expression of HF bulge EPSC markers including KRT15, CD59, TP63, ITGA6, DKK3, SOX9, and NFATC1 (passage 4 hiPSC-EPSCs) | number of proliferating (Ki67+) cells (hiPSC-EPSC) | expression of Wnt pathway genes including LEF1, TCF4, and LGR6 [2]
1 | CC(C)Oc1ccc(-c2cnc3c(-c4ccnc5ccccc45)cnn3c2)cc1 [DMH-1] | not BMP or TGF-β inhibitors, preserved clonogenicity |  |  |  | 
2 | Cc1c[nH]c(-c2cnc(NCCNc3ccc(C#N)cn3)nc2-c2ccc(Cl)cc2Cl)n1 [CHIR-99021, 6-((2-((4-(2,4-Dichlorophenyl)-5-(4-methyl-1H-imidazol-2-yl)pyrimidin-2-yl)amino)ethyl)amino)nicotinonitrile] | preserved clonogenicity | increased | increased the expression | significantly higher number of proliferating cells | upregulation
3 | Cc1cccc(-c2nn(C(=S)Nc3ccccc3)cc2-c2ccnc3ccccc23)n1 [A-83-01] | not BMP or TGF-β inhibitors, preserved clonogenicity |  |  |  | 
